Target: Induced myeloid leukemia cell differentiation protein Mcl-1 (Homo sapiens, UniProt Q07820)
Test: Binding affinity to MCL1 (unknown origin) assessed as inhibition of Mcl1-FAMbid protein-protein interaction after 1 min by fluorescence polarization assay

Sequence of Induced myeloid leukemia cell differentiation protein Mcl-1 (Q07820 whole entry): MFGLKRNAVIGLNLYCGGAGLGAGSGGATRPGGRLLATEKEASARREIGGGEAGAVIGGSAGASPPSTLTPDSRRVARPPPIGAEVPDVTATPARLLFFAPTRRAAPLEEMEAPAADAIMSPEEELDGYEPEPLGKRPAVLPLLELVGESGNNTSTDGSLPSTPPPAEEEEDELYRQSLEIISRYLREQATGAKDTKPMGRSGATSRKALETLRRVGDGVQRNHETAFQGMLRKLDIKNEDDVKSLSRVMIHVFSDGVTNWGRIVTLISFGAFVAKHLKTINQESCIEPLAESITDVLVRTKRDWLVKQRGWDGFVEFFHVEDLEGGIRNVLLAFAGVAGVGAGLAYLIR

## O=C(O)c1cc2ccccc2n1S(=O)(=O)c1ccc(OCc2cccc(Cl)c2)cc1
  Kd: 480 nM
